Some test systems named below: HOP-18; M19-MEL; DLD-1; SNB-78; DMS-114; KM-20L2; DMS-273; XF498; RXF 631.
What all share (test): NCI tumour cell line growth inhibition, 48 h

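Five compound concentrations were applied to cells in 96-well plates for 48 hours; endpoints were derived by simple linear interpolation of the resulting dose-response curve. GI50: concentration for 50% inhibition of growth.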 The source made the active and inactive calls. Rule as the data show it: active = GI50 up to about 1.1 µM and inactive = higher. Some results are limits rather than exact numbers.

On to `CC1CC#CCOC(=O)CCCC1=O` (stereo unspecified), for which the GI50 in the assay with HOP-18, with M19-MEL, with DLD-1, in the assay on SNB-78, with DMS-114 and in the assay on KM-20L2 was > 100 µM (inactive) each time. In addition, the GI50 with DMS-273 and in the assay with XF498 was > 100 µM (inactive) throughout.
Consider `Cc1ccc2nc3c(Cl)cc(=O)cc-3sc2c1`, for which the GI50 in the assay with HOP-18 is 2.96 µM (inactive); with M19-MEL, 19.7 µM (inactive); with RXF 631, 30.8 µM (inactive); in the assay on DLD-1 it was > 10 µM (inactive); with SNB-78, 39.2 µM (inactive); in the assay with DMS-114, 20.4 µM (inactive). For the same molecule, the GI50 in the assay with KM-20L2 was > 10 µM (inactive); in the assay with DMS-273 it was 19.7 µM (inactive).
`COc1ccc(-c2csc(=[N+]3CCCCC3)s2)cc1`: the GI50 was 5.15 µM (inactive) in the assay with HOP-18; 2.61 µM (inactive) with M19-MEL; 4.79 µM (inactive) in the assay with DLD-1; 3.58 µM (inactive) in the assay on SNB-78; 2.66 µM (inactive) in the assay with KM-20L2; 3.27 µM (inactive) with DMS-273. In the assay on XF498, the GI50 was 4.05 µM (inactive).
Regarding `CC1(C)CCCC2(C)[C@@H]1CC[C@@]13CC(=O)[C@@](C)(CC[C@@H]21)C3` (stereo partly specified), the GI50 is 31.5 µM (inactive) with M19-MEL; 78.3 µM (inactive) in the assay with RXF 631; > 100 µM (inactive) in the assay with DLD-1; > 100 µM (inactive) in the assay on SNB-78; 46 µM (inactive) in the assay with DMS-114; 72.3 µM (inactive) with KM-20L2. Also, in the assay with DMS-273, the GI50 is 55.6 µM (inactive).
As for `Cc1cccc(O)c(=O)c1`, the GI50 was > 100 µM (inactive) in the assay with HOP-18; 43.5 µM (inactive) in the assay on M19-MEL; 24.1 µM (inactive) in the assay on DLD-1; > 100 µM (inactive) in the assay with SNB-78; 5.92 µM (inactive) with DMS-114; 22.8 µM (inactive) with KM-20L2. In addition, in the assay with DMS-273, the GI50 is 7.41 µM (inactive).
On to `O=c1c2cc(Br)cc(Br)c2nc(CCCl)n1-c1ccc(O)c([N+](=O)[O-])c1`, for which the GI50 is 16.7 µM (inactive) in the assay with HOP-18; 15.9 µM (inactive) in the assay on M19-MEL; 18.9 µM (inactive) in the assay with DLD-1; 32.4 µM (inactive) in the assay with SNB-78; 19.1 µM (inactive) in the assay on DMS-114; 21.5 µM (inactive) in the assay with DMS-273.
For the molecule `O=C(O)c1ccc2c(c1)C(=O)N(c1ccc(S(=O)(=O)c3ccc(N4C(=O)c5ccc(C(=O)O)cc5C4=O)cc3)cc1)C2=O`, the GI50 with M19-MEL, with SNB-78, with DMS-114, in the assay on KM-20L2, in the assay with DMS-273 and in the assay with XF498 was > 100 µM (inactive) each time.
Turning to `CS(=O)(=O)NNS(=O)(=O)c1ccc(Br)cc1`, the GI50 in the assay with HOP-18, with M19-MEL, in the assay with DLD-1, with SNB-78, with DMS-114 and in the assay on KM-20L2 was > 100 µM (inactive) in each case. The GI50 in the assay on DMS-273 and in the assay with XF498 was > 100 µM (inactive) throughout.
`O=P1(c2ccccc2)CCCCC1`: the GI50 in the assay with HOP-18, with DLD-1, with SNB-78, with DMS-114, in the assay with KM-20L2 and in the assay on DMS-273 was > 100 µM (inactive) throughout. The GI50 in the assay on XF498 was < 0.01 µM (active).
`COP12(OC)NC(=O)OC1(C(F)(F)F)c1ccccc1O2` (stereo unspecified): the GI50 in the assay with HOP-18 is 52.7 µM (inactive); in the assay with M19-MEL, > 100 µM (inactive); with DLD-1 it was > 100 µM (inactive); with SNB-78 it was > 100 µM (inactive); in the assay with DMS-114, > 100 µM (inactive); in the assay on DMS-273, > 100 µM (inactive). In the assay on XF498, the GI50 was > 100 µM (inactive).
For the molecule `OC12c3ccccc3C1(N1CCOCC1)CCCCC21OCCCO1` (stereo unspecified), the GI50 with HOP-18, in the assay with DLD-1, in the assay on SNB-78, with DMS-114, in the assay on KM-20L2 and in the assay with DMS-273 was > 100 µM (inactive) in each case.
On to `COc1cc2ccnc(-c3c4ccccc4c(N)c4c(OC)c(OC)ccc34)c2cc1OC`, for which the GI50 with M19-MEL is 3.87 µM (inactive); in the assay with DLD-1, 3.04 µM (inactive); in the assay on SNB-78, 3.66 µM (inactive); in the assay with DMS-114 it was 2.59 µM (inactive); in the assay on DMS-273 it was 1.53 µM (inactive); in the assay with XF498 it was 2.64 µM (inactive).
In the case of `C[N+](C)=c1[nH]c2ccccc2[nH]1`, the GI50 in the assay on HOP-18, with M19-MEL, with DLD-1, with DMS-114, in the assay on KM-20L2 and in the assay on DMS-273 was > 100 µM (inactive) throughout.
Turning to `COc1cc(C2c3cc4c(cc3[C@@H](Nc3ccc(N(C)C)cc3)[C@H]3COC(=O)C23)OCO4)cc(OC)c1O` (stereo partly specified), the GI50 in the assay on HOP-18 was 1.85 µM (inactive); in the assay with M19-MEL, 0.839 µM (active); in the assay with DLD-1, 1.73 µM (inactive); in the assay with SNB-78 it was 4.31 µM (inactive); with DMS-114, 0.42 µM (active); in the assay with KM-20L2 it was 0.708 µM (active). Further, the GI50 with DMS-273 is 0.116 µM (active); with XF498, 0.687 µM (active).
Take `CCOC(=O)c1ccc(-n2c(SCC)nc3sc(C)c(C)c3c2=O)cc1`: the GI50 with HOP-18, in the assay with DLD-1, in the assay on SNB-78, with DMS-114, in the assay with KM-20L2 and in the assay on DMS-273 was > 100 µM (inactive) throughout. The GI50 in the assay with XF498 was > 100 µM (inactive).
Regarding `COC(=O)CCC(=O)C(CC(=O)OC)C(=O)CCC(=O)NCCc1ccccc1` (stereo unspecified), the GI50 in the assay on HOP-18, in the assay with RXF 631, in the assay with SNB-78, in the assay on KM-20L2 and with DMS-273 was > 100 µM (inactive) each time.
As for `N=c1n(CC(=O)NC23CC4CC(CC(C4)C2)C3)c2ccccc2n1CC(=O)NC12CC3CC(CC(C3)C1)C2`, the GI50 with HOP-18 is 2.03 µM (inactive); in the assay on M19-MEL, 1.72 µM (inactive); with DLD-1 it was 1.9 µM (inactive); with SNB-78 it was 2.91 µM (inactive); in the assay on DMS-114, 1.93 µM (inactive); in the assay on KM-20L2, 1.81 µM (inactive). Also, the GI50 in the assay with DMS-273 was 1.83 µM (inactive); in the assay on XF498 it was 1.52 µM (inactive).
Consider `COC1=CC(=O)c2c(ccc3ncnc(N)c23)C1=O`, for which the GI50 in the assay on M19-MEL was 1.69 µM (inactive); in the assay with RXF 631 it was 4.82 µM (inactive); in the assay with DLD-1 it was 2.08 µM (inactive); in the assay on SNB-78 it was 2.36 µM (inactive); with DMS-114, 1.77 µM (inactive); in the assay with KM-20L2, 18.8 µM (inactive). The GI50 in the assay on DMS-273 was 3.32 µM (inactive).
Turning to `Cc1cc(C)c(C(=O)c2no[n+]([O-])c2C(=O)c2c(C)cc(C)c(Br)c2C)c(C)c1Br`, the GI50 in the assay on M19-MEL is 12.6 µM (inactive); with RXF 631, 13.6 µM (inactive); in the assay with DLD-1 it was 14.2 µM (inactive); in the assay with SNB-78, 18.6 µM (inactive); in the assay on DMS-114 it was 10.8 µM (inactive); in the assay with KM-20L2, 16.2 µM (inactive). In addition, the GI50 in the assay on DMS-273 is 18.5 µM (inactive).

The values above are taken from ChEMBL document CHEMBL1201862, “PubChem BioAssay data set” (2004).
